Test results taken from EP4775582A1, “MACROCYCLIC COMPOUND AND ANTIBODY-DRUG CONJUGATE THEREOF” (Genfleet Therapeutics (Shanghai) Inc., priority 2023, dated 2025).

How the values were obtained:
Type in all cases: cell-based, human
H441 p-ERK = assay: Cell p-ERK assay (HTRF), NCI-H441 cells; conditions: NCI-H441 cells (KRAS G12V), 3 h incubation
Protocol: (§1) The cells were digested with trypsin (containing EDTA), collected in their corresponding complete media, and counted. The density of the cell suspensions was adjusted with their corresponding complete media, and 10000 AsPC-1 cells or 20000 NCI-H441 cells per well were seeded into a 96-well cell culture plate, with the volume of the medium in each well being 80 µL. The cell culture plate was incubated in an incubator at 37 °C with 5% CO2 overnight. […] On the day after cell seeding, 20 µL of the 5× compound stock solution was added to each cell culture well. […] In addition to the compound-treated wells described above, cell-containing DMSO control wells were also set. A complete medium containing 0.5% DMSO was added at 20 µL/well. After the mixture was well mixed, the culture plate was incubated in the incubator at 37 °C with 5% CO2 for another 3 h. The medium was then removed from the culture wells, and 50 µL of cell lysis buffer (from Advance ERK phospho-T202/Y204 kit) was added to each well. The mixture was well mixed and incubated for 30 min. Then, 16 µL of the mixture was transferred to a white-bottomed, opaque 96-well assay plate, and separately, 16 µL of cell lysis buffer was added to additional wells (serving as blank wells) in the assay plate. After the transfer was completed, 4 µL of p-ERK HTRF antibody mixture (from Advance ERK phospho-T202/Y204 kit) was added to each well of the assay plate, followed by a 4-hour incubation. […] Using an XLfit software, the IR (%) values were plotted against the logarithm of the compound concentrations, and the dose-response curves were fitted using the four-parameter method to calculate the IC50 values.

AsPC-1 p-ERK = assay: Cell p-ERK assay (HTRF), AsPC-1 cells; conditions: Homo sapiens, ASPC1, 3 h, read-out: AsPC-1 p-ERK IC50(nM)
Protocol: as §1

NCI-H441 cells = assay: 3D cell proliferation assay (CellTiter Glo-3D), NCI-H441; conditions: Homo sapiens, 120 h, NCI-H441 cells (KRAS G12V), 2% FBS, 5 days, read-out: H441 AP IC50
Protocol: (§2) The cells were digested with trypsin (containing EDTA), collected in their respective low-serum complete media containing 2% FBS (for MIA Paca-2 cell culture: DMEM + 2% FBS + 0.5% Horse serum + 1% PS), and counted. After the cell density was adjusted as required, 200 MIA PaCa-2 cells, 800 AsPC-1 cells, 800 NCI-H441 cells, or 400 NCI-H1975 cells per well were seeded into a 384-well cell culture plate, with the volume of the medium in each well being 45 µL. The cell culture plate was incubated in an incubator at 37 °C with 5% CO2 overnight. […] On the day after cell seeding, 5 µL of the 10× compound stock solution was added to each cell culture well. […] In addition to the compound-treated wells described above, cell-containing DMSO control wells (with 5 µL of the complete medium containing 1% DMSO added to each well) and cell-free medium control wells (containing 50 µL of the complete medium with 2% FBS) were also set. The culture plate was incubated in an incubator at 37 °C with 5% CO2 for another 5 days, and then 30 µL of CellTiter-Glo working solution was added to each well. The mixture was well mixed, incubated for 30 min, left to stand at room temperature for 30 min, and then transferred to a white-bottomed, opaque 384-well assay plate at 40 µL/well. […] Using an XLfit software, the IR (%) values were plotted against the logarithm of the compound concentrations, and the dose-response curves were fitted using the four-parameter method to calculate the IC50 values.

AsPC-1 cells = assay: 3D cell proliferation assay (CellTiter Glo-3D), AsPC-1; conditions: Homo sapiens, ASPC1, 120 h, read-out: AsPC-1 AP IC50(nM)
Protocol: as §2

Structure (SMILES) | IC50 (H441 p-ERK; Homo sapiens) | IC50 (AsPC-1 p-ERK) | IC50 (NCI-H441 cells) | IC50 (AsPC-1 cells) | IC50 (H441 p-ERK)
CO[C@@H](C)c1ncc(C#CCN2CCN(C(=O)CN)CC2)cc1-c1c2c3cc(ccc3n1C(C)C)-c1csc(n1)C[C@H](NC(=O)[C@H]1[C@@H]3COC[C@@H]31)C(=O)N1CCC[C@H](N1)C(=O)OCC(C)(C)C2 (atropisomer, axis not shown; (Ra)) [Compound Z84, (1R,5S,6r)-N-((6^3S,4S,Z)-(Ra)-1^2-(5-(3-(4-glycylpiperazin-1-yl)prop-1-yn-1-yl)-2-((S)-1-methoxyethyl)pyridin-3-yl)-1^1-isopropyl-10,10-dimethyl-5,7-dioxo-6^1,6^2,6^3,6^4,6^5,6^6-hexahydro-1^1H-8-oxa-2(4,2)-thiazola-1(5,3)-indola-6(1,3)-pyridazinacycloundecaphane-4-yl)-3-oxabicyclo[3.1.0]hexane-6-carboxamide] | 1.47 nM | 1.56 nM | 3.02 nM | 2.7 nM | 
CCn1c(-c2cc(C#CCN3CCS(=O)(=O)CC3)cnc2[C@H](C)OC)c2c3cc(ccc31)-c1cc(N)cc(c1)C[C@H](NC(=O)C(C(C)C)N(C)C(=O)[C@@H]1CN(C(=O)OC)C[C@@H]1C)C(=O)N1CCC[C@H](N1)C(=O)OCC(C)(C)C2 (atropisomer, axis not shown; (Ra)) [Compound Z62] |  |  |  |  | 3.19 nM
CCn1c(-c2cc(C#CCN3CCCOCC3)cnc2[C@H](C)OC)c2c3cc(ccc31)-c1csc(n1)C[C@H](NC1=NOC(C)(CC)C1)C(=O)N1CCC[C@H](N1)C(=O)OCC(C)(C)C2 (atropisomer, axis not shown) [Compound Z173, (6^3S,4S,Z)-1^2-(5-(3-(1,4-oxazepan-4-yl)prop-1-yn-1-yl)-2-((S)-1-methoxyethyl)pyridin-3-yl)-1^1-ethyl-10,10-dimethyl-4-((5-ethyl-5-methyl-4,5-dihydroisoxazol-3-yl)amino)-6^1,6^2,6^3,6^4,6^5,6^6-hexahydro-1^1H-8-oxa-2(4,2)-thiazola-1(5,3)-indola-6(1,3)-pyridazinacycloundecaphane-5,7-dione] | 3.03 nM |  |  |  | 
COCCn1c(-c2cc(C#CCN3CCN(C(=O)CO)CC3)cnc2[C@H](C)OC)c2c3cc(ccc31)-c1csc(n1)C[C@H](NC(=O)[C@H]1[C@@H]3COC[C@@H]31)C(=O)N1CCC[C@H](N1)C(=O)OCC(C)(C)C2 (atropisomer, axis not shown) [Compound Z31, (1R,5S,6r)-N-((6^3S,4S,Z)-1^2-(5-(3-(4-(2-hydroxyacetyl)piperazin-1-yl)prop-1-yn-1-yl)-2-((S)-1-methoxyethyl)pyridin-3-yl)-1^1-(methoxyethyl)-10,10-dimethyl-5,7-dioxo-6^1,6^2,6^3,6^4,6^5,6^6-hexahydro-1^1H-8-oxa-2(4,2)-thiazola-1(5,3)-indola-6(1,3)-pyridazinacycloundecaphane-4-yl)-3-oxabicyclo[3.1.0]hexane-6-carboxamide] | 2.39 nM |  |  |  | 
CCn1c(-c2cc(C#CCN3CCCOCC3)cnc2[C@H](C)OC)c2c3cc(ccc31)-c1csc(n1)C[C@H](NC1=NOC(C)(C)C1)C(=O)N1CCC[C@H](N1)C(=O)OCC(C)(C)C2 (atropisomer, axis not shown; (Ra)) [Compound Z172-1, (6^3S,4S,Z)-(Ra)-1^2-(5-(3-(1,4-oxazepan-4-yl)prop-1-yn-1-yl)-2-((5)-1-methoxyethyl)pyridin-3-yl)-1^1-ethyl-10,10-dimethyl-4-((5,5-dimethyl-4,5-dihydroisoxazol-3-yl)amino)-6^1,6^2,6^3,6^4,6^5,6^6-hexahydro-1^1H-8-oxa-2(4,2)-thiazola-1(5,3)-indola-6(1,3)-pyridazinacycloundecaphane-5,7-dione] | 2.17 nM | 5.8 nM |  |  | 
CCn1c(-c2cc(C#CCN3CCS(=O)(=O)CC3)cnc2[C@H](C)OC)c2c3cc(ccc31)-c1csc(n1)C[C@H](NC(=O)[C@@H](NC)C(C)C)C(=O)N1CCC[C@H](N1)C(=O)OCC(C)(C)C2 (atropisomer, axis not shown) [Compound Z4, (2S)-N-((6^3S,4S,Z)-1^2-(5-(3-(1,1-dioxidothiomorpholin-4-yl)prop-1-yn-1-yl)-2-((S)-1-methoxyethyl)pyridin-3-yl)-1^1-ethyl-10,10-dimethyl-5,7-dioxo-6^1,6^2,6^3,6^4,6^5, 6^6-hexahydro-1^1H-8-oxa-2(4,2)-thiazola-1(5,3)-indola-6(1,3)-pyridazinacycloundecaphane-4-yl)-3-methyl-2-(methylamino)butanamide] | 0.53 nM | 0.52 nM |  |  | 
CCn1c(-c2cc(C#CCN3CCS(=O)(=O)CC3)cnc2[C@H](C)OC)c2c3cc(ccc31)-c1csc(n1)C[C@H](NC(=O)[C@@H](N)C1CCCC1)C(=O)N1CCC[C@H](N1)C(=O)OCC(C)(C)C2 (atropisomer, axis not shown; (Ra)) [Compound Z14, (2S)-2-amino-2-cyclopentyl-N-((6^3S,4S,Z)-(Ra)-1^2-(5-(3-(1,1-dioxidothiomorpholino)prop-1-yn-1-yl)-2-((S)-1-methoxyethyl)pyridin-3-yl)-1^1-ethyl-10,10-dimethyl-5,7-dioxo-6^1,6^2,6^3,6^4,6^5,6^6-hexahydro-1^1H-8-oxa-2(4,2)-thiazola-1(5,3)-indola-6(1,3)-pyridazinacycloundecaphane-4-yl)acetamide] | 0.41 nM | 0.45 nM |  |  | 

Now from value to molecule:

IC50 (H441 p-ERK; Homo sapiens) | IC50 (AsPC-1 p-ERK) | IC50 (NCI-H441 cells) | IC50 (AsPC-1 cells) | IC50 (H441 p-ERK) | Structure (SMILES)
1.43 nM |  |  |  |  | CCn1c(-c2cc(C#CCN3CCCOCC3)cnc2[C@H](C)OC)c2c3cc(ccc31)-c1csc(n1)C[C@H](NC1=NOC(C)(C(C)C)C1)C(=O)N1CCC[C@H](N1)C(=O)OCC(C)(C)C2 (atropisomer, axis not shown; (Ra)) [Compound Z280, (6^3S,4S,Z)-(Ra)-1^2-(5-(3-(1,4-oxazepan-4-yl)prop-1-yn-1-yl)-2-((S)-1-methoxyethyl)pyridin-3-yl)-1^1-ethyl-10,10-dimethyl-4-((5-isopropyl-5-methyl-4,5-dihydroisoxazol-3-yl)amino)-6^1,6^2,6^3,6^4,6^5,6^6-hexahydro-1^1H-8-oxa-2(4,2)-thiazola-1(5,3)-indola-6(1,3)-pyridazinacycloundecaphane-5,7-dione]
2.61 nM | 6.03 nM |  |  |  | CCn1c(-c2cc(C#CCN3CCCOCC3)cnc2[C@H](C)OC)c2c3cc(ccc31)-c1csc(n1)C[C@H](NC1=NOC3(CCOCC3)C1)C(=O)N1CCC[C@H](N1)C(=O)OCC(C)(C)C2 (atropisomer, axis not shown) [Compound Z175, (6^3S,4S,Z)-1^2-(5-(3-(1,4-oxazepan-4-yl)prop-1-yn-1-yl)-2-((S)-1-methoxyethyl)pyridin-3-yl)-4-((1,8-dioxa-2-azaspiro[4.5]dec-2-en-3-yl)amino)-1^1-ethyl-10,10-dimethyl-6^1,6^2,6^3,6^4,6^5,6^6-hexahydro-1^1H-8-oxa-2(4,2)-thiazola-1(5,3)-indola-6(1,3)-pyridazinacycloundecaphane-5,7-dione]
3.04 nM |  | 3 nM | 4.87 nM |  | CCn1c(-c2cc(C#CCN3CCCOCC3)cnc2[C@H](C)OC)c2c3cc(ccc31)-c1csc(n1)C[C@H](NC1=NOC(C)(C3CC3)C1)C(=O)N1CCC[C@H](N1)C(=O)OCC(C)(C)C2 (atropisomer, axis not shown; (Ra)) [Compound Z281, (6^3S,4S,Z)-(Ra)-1^2-(5-(3-(1,4-oxazepan-4-yl)prop-1-yn-1-yl)-2-((S)-1-methoxyethyl)pyridin-3-yl)-1^1-ethyl-10,10-dimethyl-4-((5-cyclopropyl-5-methyl-4,5-dihydroisoxazol-3-yl)amino)-6^1,6^2,6^3,6^4,6^5,6^6-hexahydro-1^1H-8-oxa-2(4,2)-thiazola-1(5,3)-indola-6(1,3)-pyridazinacycloundecaphane-5,7-dione]
